Measurements taken from patent publication US20110046142A1, “ANTIBIOTIC COMPOUNDS” (priority 2007, published 2011).
In brackets after ≈: the same amount, converted by molar mass. Where two headings read alike, the source gives them in different places.

How the values were obtained:
Format in all cases: cell-based
[1] = tested on: E. coli K12 Δactivating enzyme; assay: MIC, standard broth microdilution assay, deletion strains
Experimental: (§1) The ASKA strains of interest are validated for functional expression of the enzyme. If the protein is not expressed from a given expression vector the ORF is recloned. A strain overexpressing the activating enzyme from the ASKA library is then tested with the hit compound. If the hit has greater activity against this overexpressing strain as compared to the wild type, this indicates a prodrug. The test is performed in a standard broth microdilution assay for MIC determination. Hits with the lowest wild type MIC are then examined.
(§2) Cells were tested in a standard broth microdilution assay, inoculating 10^5 cells per well of a microtiter plate in LB broth. Overexpression and deletion strains were compared to the appropriate isogenic wild type. IPTG was added at 1 mM to growth medium. Experiments involving nfnB and nfsA strains were performed under anaerobic conditions.

[2] = tested on: E. coli K12 wt; assay: MIC, standard broth microdilution assay; conditions: LB broth, 10^5 cells per well, 1 mM IPTG
Experimental: as §1, §2

[3] = tested on: E. coli K12 ΔtolC overexpressing activating enzyme; assay: MIC, standard broth microdilution assay, tolC deletion (MDR efflux)
From the text: Prodrugs are activated by activating enzymes into reactive molecules that bind to their targets, creating an irreversible sink. This may lead to insensitivity of the overall process to MDR efflux. In order to test this possibility, an E. coli K12 with a deletion in tolC coding for the outer membrane porin that is a component of the transenvelope MDRs was utilized (Li (2004) Drugs 64:159-204). This strain is highly sensitive to antibiotics (Tegos et al. (2002) Antimicrob. Agents Chemother. 46:3133-3141). […] The substrate specificity of AcrAB is remarkably broad, and includes essentially all small molecular weight amphipathic compounds. The AcrAB substrates include anions (SDS, fatty acids, bile acids), neutral compounds (macrolides, chloramphenicol, tetracyclines) and cations or compounds that can form cations (acridine, quaternary compound antiseptics, fluoroquinolones). AcrAB can extrude a natural broad spectrum antibiotics that evolved for good penetration, chloramphenicol and tetracycline; and also extrude synthetic broad-spectrums, the fluoroquinolones.
as §2

[4] = tested on: E. coli K12 overexpressing activating enzyme; assay: MIC, standard broth microdilution assay, overexpression strains
Experimental: as §1, §2

[5] = tested on: E. coli K12 knockout pool (BacPool) and wild type; assay: Prodrug screen, growth/no growth of BacPool knockout mix versus wild type; conditions: compounds at about 46-50 μg/ml, OD600 after overnight incubation
From the text: A complete, ordered E. coli K12 knockout library of 4320 genes and predicted ORFs (the Keio library) was used (Baba et al. (2006). Mol. Systems Biol. 2:2006.0008). The knockouts were constructed using the Wanner method with a kanamycin cassette replacing the ORFs (Datsenko et al. (2000) Proc. Natl. Acad. Sci. USA 97:6640-6645). All strains of this library were combined in a mix BacPool1) for screening. This permitted screening of the library against all strains simultaneously, instead of screening a full industry-size library against each of the individual E. coli 4×10^3 knockout strains.
The library mix was prepared by first culturing all strains overnight in LB medium, and then adding equal aliquots into a tube. This material was then mixed, dispensed in vials and stored at −80° C. For the screen, one vial was thawed, diluted to 10^5 cells/ml in LB, and dispensed into 384 well microtiter plates. The compounds were added from DMSO stocks at a final concentration of 46 μg/ml. The same compounds were added to plates containing the wild type isogenic control. Screening was performed at the Harvard NSRB/NERCE screening facility that host a collection of 150,000 compounds (see Tables 1A and 1B). All screens at NSRB/NERCE were performed in duplicate, which strongly decreases the rate of false positives and negatives. For each tested molecule there are three possible scenarios when scoring for growth/no growth:
Growth in both the BacPool and K12 wells: indicates lack of antimicrobial activity;
Growth inhibition in both the BacPool and K12 wells: a possible antibiotic (direct activity) or generally toxic compound is present, but is not a prodrug; or
Growth of a BacPool well and no growth of the K12 well: a prodrug hit.
After an overnight incubation of plates at 37° C., the plates were read at OD600. Compounds that had no effect on the growth of the mix and inhibited the growth of the wild type were recorded as hits. The wells with growth indicated a prodrug hit that is not converted into a drug by a particular deletion mutant in the mix. The mutant strain is then identified in a secondary screen (see Example 2).
Yet another screen was performed on 147,500 compounds, using the protocol described below. […]
An E. coli KanR culture was grown in LB broth containing 50 μg/ml Kanamycin for 20 hrs at 37° C. in a shaking incubator. […] The plates were then incubated for 20 hrs at 37° C., and then the plates were read for Optical Density at 600 nm and were scored for growth/no growth. […]
Hits were identified by calculating the % of inhibition of growth of E. coli measured by OD600. The data were analyzed as follows: negative controls (N), positive controls (P), and compounds (X) ODs were separately averaged and the resulting means were used to calculate % of inhibition of E. coli growth: […]

[6] = tested on: wild type (WT) E. coli; assay: MIC, validation of screen hits
Experimental: (§3) To validate the screening, the activity of nitazole against strains with nitrate reductases deleted and in strains overexpressing nitrate reductases were tested. A prodrug activated by a nitrate reductase has lower activity against a strain lacking the enzyme, and a higher activity in an overexpression strain, as compared to a wild type. E. coli has two known […], NfnB and NfsA. Strains tested were wild type (WT) E. coli, two knockout strains lacking the 2 nitroreductases (NfnB−; NfsA−), and against two strains overexpressing the same enzymes (NfnB+ and NfsA+). MIC values for nitazole are shown below.

[7] = tested on: P. aeruginosa; assay: Killing of logarithmic, stationary and biofilm cultures, colony count
Experimental: Persister cells in planktonic and biofilm populations are characterized for their antibiotic sensitivity in this example. Several bactericidal antimicrobials were chosen to test the resistance of P. aeruginosa to killing—ofloxacin, a fluoroquinolone; tobramycin, an aminoglycoside; carbenicillin, a β-lactam; and peracetic acid, a disinfectant oxidant (Spoering et al. (2001) J. Bacteriol. 183:6746-6751). Biofilms were grown essentially by the method of Ceri (Ceri et al. (1999) J. Clin. Microbiol. 37:1771-1776) and as described in Brooun et al. (2000) Antimicrob. Agents Chemother. 44:640-646. The device used for biofilm formation is a platform carrying 96 polystyrene pegs that fit in a microtiter plate. Preformed biofilms were incubated in the presence of an antimicrobial agent, and survival was measured after disrupting the biofilms by colony count.
Logarithmic state, stationary and biofilm cultures were challenged with carbenicillin. Carbenicillin is a bactericidal antibiotic that, similarly to most β-lactams, only kills rapidly growing cells (Tuomanen et al. (1986) Scand. J. Gastroenterol. Suppl:10-14). […] The amount of killing of logarithmic cells approached a plateau at concentrations above 1.67×MIC, indicating the presence of a persister subpopulation. These 0.1% cells in the rapidly growing logarithmic culture were invulnerable to killing by carbenicillin at 600 μg/ml.
Unlike carbenicillin, ofloxacin can kill non-growing cells (Brooun et al. (2000) Antimicrob. Agents Chemother. 44:640-646). Logarithmic, stationary and biofilm cultures were challenged with ofloxacin over a wide range of concentrations, from 1×MIC (0.5 μg/ml) to 30×MIC (15 μg/ml). After a 6 hrs incubation time with the antibiotic, viability was determined by colony count. The majority of cells in the three populations examined were killed at low concentrations of ofloxacin (FIG. 3B). The killing in all three cultures was distinctly biphasic, indicating the presence of persister cells. The levels of persisters were dramatically higher in the dense stationary planktonic and biofilm cultures as compared to logarithmic cells. […] At 5 μg/ml ofloxacin, which is the clinically achievable concentration (Schulz et al. (1997) Pharmazie 52:895-911), the percentage of live cells was 0.001% in the logarithmic population, 0.1% in the biofilm and 2.5% in the stationary culture (FIG. 3B).
Tobramycin at 50 μg/ml (the maximal clinically achievable concentration is 10 μg/ml), (Schulz et al. (1997) Pharmazie 52:895-911) eliminated 90% of the biofilm cells, and the remaining population declined gradually with increasing amounts of the antibiotic. At high concentrations surviving persisters became apparent. Tobramycin was ineffective against stationary planktonic cells, apparently due to the dependence of killing of growth.
Peracetic acid, an oxidizing disinfectant, was used in order to test the ability of a sterilizing agent to act against persisters. […] Similar results showing biphasic killing, and high level of persisters in stationary and biofilm populations, also were obtained with S. aureus and E. coli (Keren et al. (2004) FEMS Microbiol. Lett. 230:13-18).

[8] = tested on: E. coli strains overexpressing NfnB+ and NfsA+; assay: MIC, validation of screen hits, overexpression strains
Experimental: as §3

[9] = tested on: E. coli knockout strains lacking the 2 nitroreductases (NfnB−; NfsA−); assay: MIC, validation of screen hits, knockout strains
Experimental: as §3

[10] = nfnB^− deletion strain, anaerobic conditions
[11] = nfsA^− deletion strain, anaerobic conditions
[12] = ΔtolC, nfnB^+ overexpressing strain
[13] = ΔtolC, nfsA^+ overexpressing strain
[14] = nfnB^+ overexpressing strain, 1 mM IPTG, anaerobic conditions
[15] = nfsA^+ overexpressing strain, 1 mM IPTG, anaerobic conditions
[16] = Escherichia coli, K12WT, read-out: MIC
[17] = Escherichia coli, read-out: MIC

With `NC(=O)c1cc([N+](=O)[O-])cc([N+](=O)[O-])c1` [3,5-Dinitrobenzamide] the MIC [1, 10] was “nfnB^− > 500 μg/ml”, the MIC [1, 11] was “nfsA^− > 500 μg/ml” and the MIC [2] was 250 µg/mL (≈ 1180 µM). The MIC [3, 12] was “nfnB^+ 15.6 μg/ml”, the MIC [3, 13] was “nfsA^+ 7.8 μg/ml” and the MIC [4, 14] was “nfnB^+ 15.6 μg/ml”. For the same molecule, the MIC [4, 15] was “nfsA^+ 7.8 μg/ml”.
`Nc1nc(O)ncc1F` [5-fluorocytosine, 5-Fluorocytosine] was tested, and the MIC ([1]; Escherichia coli, codA^− deletion strain) was > 2500 µg/mL, the MIC [2, 16] was > 2500 µg/mL and the MIC ([3]; Escherichia coli) was 625 µg/mL (≈ 4840 µM). It also gave an MIC ([4]; Escherichia coli) of 625 µg/mL (≈ 4840 µM).
With `NC(=O)c1cc(N2CC2)c([N+](=O)[O-])cc1[N+](=O)[O-]` [Dinitroaziridinylbenzamide (CB1954), Dinitroaziridinylbenzamide] the MIC [1, 10] was “nfnB^− > 200 μg/ml”, the MIC [1, 11] was “nfsA^− > 200 μg/ml” and the MIC [2] was >200 µg/mL. For the same molecule, the MIC [3, 12] was “nfnB^+ 3.3 μg/ml”, the MIC [3, 13] was “nfsA^+ 6.3 μg/ml” and the MIC [4, 14] was “nfnB^+ 3.3 μg/ml”. The MIC [4, 15] was “nfsA^+ 6.3 μg/ml”.
With `CC[C@H]1OC(=O)[C@H](C)[C@@H](O[C@H]2C[C@@](C)(OC)[C@@H](O)[C@H](C)O2)[C@H](C)[C@@H](O[C@@H]2O[C@H](C)C[C@H](N(C)C)[C@H]2O)[C@](C)(O)C[C@@H](C)C(=O)[C@H](C)[C@@H](O)[C@]1(C)O` [Erythromycin] the MIC [2, 16] was 200 µg/mL (≈ 273 µM), the MIC ([3]; Escherichia coli) was 1.56 µg/mL (≈ 2.13 µM) and the MIC ([3]; ΔtolC, codA^+ overexpressing strain) was “codA^+ 1.56 μg/ml”. The MIC ([3]; ΔtolC, deoD^+ overexpressing strain) was “deoD^+ 1.56 μg/ml”, the MIC [3, 12] was “nfnB^+ 1.56 μg/ml” and the MIC [3, 13] was “nfsA^+ 1.56 μg/ml”. The MIC ([4]; Escherichia coli) was 200 µg/mL (≈ 273 µM), the MIC ([4]; codA^+ overexpressing strain, 1 mM IPTG) was “codA^+ 200 μg/ml” and the MIC ([4]; deoD^+ overexpressing strain, 1 mM IPTG) was “deoD^+ 200 μg/ml”. The MIC [4, 15] was “nfsA^+ 200 μg/ml”.
For `Nc1nc(F)nc2c1ncn2[C@@H]1O[C@H](CO)[C@@H](O)[C@@H]1O` [Fludarabine], the MIC ([1]; Escherichia coli, deoD^− deletion strain) was > 500 µg/mL, the MIC [2, 16] was > 500 µg/mL and the MIC ([3]; Escherichia coli) was 125 µg/mL (≈ 438 µM). For the same molecule, the MIC ([4]; Escherichia coli) was 125 µg/mL (≈ 438 µM).
In the case of `S=C(Nc1cccc(Cl)c1)Nc1cccc(Cl)c1` [PD18, thiourea, N,N′-bis(3-chlorophenyl)-(9CI)], the “screen outcome (prodrug hit / direct activity)” value [5] is reported as “prodrug hits” and the MIC [6, 17] is reported as 25 µg/mL (≈ 84.1 µM).
For `CC(=O)OO` [Peracetic acid], the sterilization of cultures ([7]; logarithmic, stationary and biofilm cultures) was “all cultures were sterilized”.
For `CC1(C)S[C@@H]2[C@H](NC(=O)C(C(=O)O)c3ccccc3)C(=O)N2[C@H]1C(=O)O` (stereo partly drawn) [carbenicillin], the “killing of biofilm cells” value ([7]; biofilm) was “resistant to killing”, the “concentration at which the majority of logarithmic cells were killed” value ([7]; logarithmic cells) was 1.67 ×MIC and the “cells invulnerable to killing (persister subpopulation)” value ([7]; rapidly growing logarithmic culture, 600 μg/ml) was 0.1%. For the same molecule, the “killing of stationary cells” value ([7]; stationary planktonic cells) was “little killing”.
With `CC(=O)Nc1ncc([N+](=O)[O-])s1` [nitazole, Acetamide, N-(5-nitro-2-thiazolyl)-(8CI,9CI)] the MIC ([8]; Escherichia coli, NfnB+) was 1.6 µg/mL (≈ 8.55 µM), the MIC ([8]; Escherichia coli, NfsA+) was 6.3 µg/mL (≈ 33.7 µM) and the “screen outcome (prodrug hit / direct activity)” value [5] was “prodrug hits”. It also gave an MIC [6, 17] of 12.5 µg/mL (≈ 66.8 µM), an MIC ([9]; Escherichia coli) of 25 µg/mL (≈ 134 µM) and an MIC ([9]; NfsA−) of 25 µg/mL (≈ 134 µM).
For “benzoxazole, 2,3-dihydro-5-nitro-2-(5-nitro-2-thienyl)-(9CI)”, the MIC ([8]; NfnB+) was 3.1 µg/mL, the MIC ([8]; NfsA+) was 6.3 µg/mL and the “screen outcome (prodrug hit / direct activity)” value [5] was “prodrug hit”. For the same molecule, the MIC [6] was 12.5 µg/mL, the MIC ([9]; NfnB−) was 25 µg/mL and the MIC ([9]; NfsA−) was 25 µg/mL.
